Results from patent publication US7026339B2, “Inhibitors of HCV NS5B polymerase” (priority 2003, dated 2006).

System: HuH-7 replicon cells 5–15 and 9–13 (HCV replication)
Test: Inhibition of viral replication in HuH-7 replicon cells (HCV RNA / GAPDH RNA by multiplex RT-PCR)
Type: cell-based
Settings: Hepatitis C virus, 72 h; inhibiting 50% of replication; HuH-7 replicon cells, 3 days; read-out: IC50
Procedure, shortened: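 Replicon cells seeded at 7×10^3 cells/well, grown 24 h, then exposed 3 days at 37 °C to compound at final 100 μM–1 μM (1% DMSO). Multiplex TaqMan RT-PCR on total RNA quantified HCV 5′-UTR and GAPDH RNA against a standard curve; HCV/GAPDH ratio reported as percent of untreated control.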

Cc1ccc(S(=O)(=O)Oc2cnccc2/C=N/NC(=O)Cc2cccc(Cl)c2)cc1 [Compound 228, 4-((E)-{2-[2-(3-chlorophenyl)acetyl]hydrazono}methyl)-pyridin-3-yl 4-methylbenzenesulfonate]
IC50: < 5 µM

COc1cccc(CC(=O)N/N=C/c2ccncc2OS(=O)(=O)c2ccc(C)cc2)c1 [Compound 229, 4-((E)-{2-[2-(3-methoxyphenyl)acetyl]hydrazono}methyl)-pyridin-3-yl 4-methylbenzenesulfonate]
IC50: < 5 µM

COc1cccc(CC(=O)N/N=C/c2ccncc2OS(=O)(=O)c2ccc(C(F)(F)F)cc2)c1 [Compound 230, 4-((E)-{2-[2-(3-methoxyphenyl)acetyl]hydrazono}methyl)-pyridin-3-yl 4-(trifluoromethyl)benzenesulfonate]
IC50: < 5 µM

Cc1ccc(S(=O)(=O)Cc2ccccc2/C=N/NC(=O)Cc2cccc(Cl)c2)cc1 [Compound 231, 2-(3-chlorophenyl)-N′-[(1E)-(2-{[(4-methylphenyl)sulfonyl]methyl}phenyl)-methylene]acetohydrazide]
IC50: < 5 µM

Cc1ccc(S(=O)(=O)Cc2ccccc2/C=N/NC(=O)Cc2ccccc2)cc1 [Compound 232, N′-[(1E)-(2-{[(4-methylphenyl)sulfonyl]methyl}phenyl)-methylene]-2-phenylacetohydrazide]
IC50: < 5 µM

COc1cccc(CC(=O)N/N=C/c2ccccc2CS(=O)(=O)c2ccc(C)cc2)c1 [Compound 233, 2-(3-methoxyphenyl)-N′-[(1 E)-(2-{[(4-methylphenyl)sulfonyl]methyl}phenyl)-methylene]acetohydrazide]
IC50: < 5 µM

Cc1ccc(Oc2ccccc2/C=N/NC(=O)Cc2ccccc2)cc1 [Compound 234, N′-{(1E)-[2-(4-methylphenoxy)phenyl]methylene}-2-phenylacetohydrazide]
IC50: > 50 µM

Cc1ccc(COc2ccccc2/C=N/NC(=O)Cc2ccccc2)cc1 [Compound 235, N′-((1E)-{2-[(4-methylbenzyl)oxy]phenyl}methylene)-2-phenylacetohydrazide]
IC50: > 50 µM

COc1cccc(CC(=O)N/N=C/c2ccccc2OCc2ccc(C)cc2)c1 [Compound 236, 2-(3-methoxyphenyl)-N′-((1E)-{2-[(4-methylbenzyl)oxy]phenyl}methylene)-acetohydrazide]
IC50: > 50 µM

CC(C)(C)c1ccc(COc2ccccc2/C=N/NC(=O)Cc2cccnc2)cc1 [Compound 237, N′-((1E)-{2-[(4-tert-butylbenzyl)oxy]phenyl}methylene)-2-pyridin-3-ylacetohydrazide]
IC50: > 50 µM

O=C(Cc1ccccc1)N/N=C/c1ccccc1OCc1cccc2ccccc12 [Compound 238, N′-{(1E)-[2-(1-naphthylmethoxy)phenyl]methylene}-2-phenylacetohydrazide]
IC50: 5 to 50 µM

COc1cccc(CC(=O)N/N=C/c2ccccc2S(=O)(=O)c2ccc(C)cc2)c1 [Compound 239, 2-(3-methoxyphenyl)-N′-((1E)-{2-[(4-methylphenyl)sulfonyl]phenyl}methylene)-acetohydrazide]
IC50: 5 to 50 µM

CN(c1ccccc1/C=N/NC(=O)c1cc(Cl)ccc1Cl)S(=O)(=O)c1ccc(C(F)(F)F)cc1 [Compound 240, N-(2-{(E)-[(2,5-dichlorobenzoyl)hydrazono]methyl}phenyl)-N-methyl-4-(trifluoromethyl)benzenesulfonamide]
IC50: 1 µM

O=C(Cc1cccc(Br)c1)N/N=C/c1ccccc1NS(=O)(=O)c1ccc(C(F)(F)F)cc1 [Compound 241, N-[2-((E)-{[(3-bromophenyl)acetyl]hydrazono}methyl)-phenyl]-4-(trifluoromethyl)benzenesulfonamide]
IC50: > 50 µM

O=C(Cc1cccc(Cl)c1)N/N=C/c1ccccc1NS(=O)(=O)c1ccc(C(F)(F)F)cc1 [Compound 242, N-[2-((E)-{[(3-chlorophenyl)acetyl]hydrazono}methyl)-phenyl]-4-(trifluoromethyl)benzenesulfonamide]
IC50: > 50 µM

CN(c1ccccc1/C=N/NC(=O)Cc1ccccc1)S(=O)(=O)c1ccc(C(F)(F)F)cc1 [Compound 243, N-methyl-N-(2-{(E)-[(phenylacetyl)hydrazono]methyl}phenyl)-4-(trifluoromethyl)benzenesulfonamide]
IC50: < 5 µM

CN(c1ccccc1/C=N/NC(=O)Cc1cccc(Cl)c1)S(=O)(=O)c1ccc(C(F)(F)F)cc1 [Compound 244, N-[2-((E)-{[(3-chlorophenyl)acetyl]hydrazono}methyl)-phenyl]-N-methyl-4-(trifluoromethyl)benzenesulfonamide]
IC50: < 5 µM

CN(c1ccccc1/C=N/NC(=O)Cc1cccc(Br)c1)S(=O)(=O)c1ccc(C(F)(F)F)cc1 [Compound 245, N-[2-((E)-{[(3-bromophenyl)acetyl]hydrazono}methyl)-phenyl]-N-methyl-4-(trifluoromethyl)benzenesulfonamide]
IC50: < 5 µM

COc1ccc(CC(=O)N/N=C/c2ccccc2N(C)S(=O)(=O)c2ccc(C(F)(F)F)cc2)cc1OC [Compound 246, N-[2-((E)-{[(3,4-dimethoxyphenyl)acetyl]hydrazono}methyl)-phenyl]-N-methyl-4-(trifluoromethyl)benzenesuIfonamide]
IC50: < 5 µM

CN(c1ccccc1/C=N/NC(=O)Cc1cccnc1)S(=O)(=O)c1ccc(C(F)(F)F)cc1 [Compound 247, N-methyl-N-(2-{(E)-[(pyridin-3-ylacetyl)hydrazono]methyl}phenyl)-4-(trifluoromethyl)benzenesulfonamide]
IC50: < 5 µM

CN(c1ccccc1/C=N/NC(=O)Cc1ccc2c(c1)OCO2)S(=O)(=O)c1ccc(C(F)(F)F)cc1 [Compound 248, N-(2-{(E)-[(1,3-benzodioxol-5-ylacetyl)hydrazono]methyl}phenyl)-N-methyl-4-(trifluoromethyl)benzenesulfonamide]
IC50: < 5 µM

CN(c1ccccc1/C=N/NC(=O)Cc1c[nH]cn1)S(=O)(=O)c1ccc(C(F)(F)F)cc1 [Compound 249, N-(2-{(E)-[(1H-imidazol-4-ylacetyl)hydrazono]methyl}phenyl)-N-methyl-4-(trifluoromethyl)benzenesulfonamide]
IC50: < 5 µM

O=S(=O)(Cc1cccc(Cl)c1)N/N=C/c1ccccc1OS(=O)(=O)c1ccc(C(F)(F)F)cc1 [Compound 250, 2-((E)-[2-[(3-chlorobenzyl)sulfonyl]hydrazono}methyl)-phenyl 4-(trifluoromethyl)benzenesulfonate]
IC50: 5 to 50 µM

O=S(=O)(Cc1ccccc1)N/N=C/c1ccccc1OS(=O)(=O)c1ccc(C(F)(F)F)cc1 [Compound 251, 2-{(E)-[2-(benzylsulfonyl)hydrazono]methyl}phenyl4-(trifluoromethyl)benzenesulfonate]
IC50: 5 to 50 µM

O=S(=O)(Cc1ccc(C(F)(F)F)cc1)N/N=C/c1ccccc1OS(=O)(=O)c1ccc(C(F)(F)F)cc1 [Compound 252, 2-[(E)-(2-{[4-(trifluoromethyl)benzyl]sulfonyl}hydrazono)-methyl]phenyl 4-(trifluoromethyl)benzenesulfonate]
IC50: 5 to 50 µM

O=C(Cc1ccc2c(c1)OCO2)NC1CC1c1ccccc1OS(=O)(=O)c1ccc(C(F)(F)F)cc1 (centres unmarked) [Compound 253, 2-(2-{[2-(1,3-benzodioxol-5-yl)acetyl]amino}cyclopropyl)phenyl 4-(trifluoromethyl)benzenesulfonate]
IC50: > 50 µM

O=C(NCc1ccccn1)Nc1ccccc1OS(=O)(=O)c1ccc(C(F)(F)F)cc1 [Compound 254, 2-({[(pyridin-2-ylmethyl)amino]carbonyl}amino)phenyl 4-(trifluoromethyl)benzenesulfonate]
IC50: > 50 µM

O=S(=O)(N/N=C/c1ccccc1OS(=O)(=O)c1ccc(C(F)(F)F)cc1)c1ccccc1 [Compound 255, 2-{(E)-[2-(phenylsulfonyl)hydrazono]methyl}phenyl4-(trifluoromethyl)benzenesulfonate]
IC50: 5 to 50 µM

O=S(=O)(N/N=C/c1ccccc1OS(=O)(=O)c1ccc(C(F)(F)F)cc1)c1cccc2ccccc12 [Compound 256, 2-{(E)-[2-(1-naphthylsulfonyl)hydrazono]methyl}phenyl4-(trifluoromethyl)benzenesulfonate]
IC50: 5 to 50 µM
